Results from patent US7169966B2, “Salicylic acid-binding protein encoding nucleic acid, SABP2, and methods of use thereof” (Boyce Thompson Institute for Plant Research, Inc., priority 2001, dated 2007).

Key:
PR genes = conditions: for induction of PR genes or enhanced disease resistance; cited from earlier work
AtSB2L1 = molecular target: T1, AtSB2L1 (Arabidopsis thaliana, UniProt Q8S8S9); test: [3H] salicylic acid-binding assay with unlabeled competitors, Arabidopsis homolog produced in E. coli; conditions: 1 mM unlabeled competitor; protein produced in E. coli; no competitor = 70 dpm
T1 construct: made in house
T1 sequence (Q8S8S9 1-263): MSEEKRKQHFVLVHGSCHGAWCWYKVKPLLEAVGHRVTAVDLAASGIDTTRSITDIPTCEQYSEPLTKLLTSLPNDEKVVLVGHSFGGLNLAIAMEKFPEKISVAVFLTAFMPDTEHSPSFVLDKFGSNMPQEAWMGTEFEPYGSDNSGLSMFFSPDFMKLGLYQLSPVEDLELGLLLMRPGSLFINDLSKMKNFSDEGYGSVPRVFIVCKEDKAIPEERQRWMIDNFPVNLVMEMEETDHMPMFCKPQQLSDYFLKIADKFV
Protocol: (§1) [^3H] Salicylic acid-binding assay: The protein extracts/fractions were mixed with 0.1 μM [^3H]-SA (23.6 Ci/mmol) (custom synthesized by NEN Life Science Products) in Buffer A to bring the total volume of the reaction mixture to 150 μl. The extracts were then incubated on ice for 60 minutes. Spin columns were prepared by packing Sephadex G-25 fine (Pharmacia) equilibrated with Buffer A into 1 ml disposable syringe barrels. The G-25 was packed to 1 ml and equilibrated by centrifuging at 1000 g for 4 minutes in a H-1000B rotor (Sorvall) at 4° C. The entire binding mixture was loaded onto the column and centrifuged under similar conditions. Bound [^3H]-SA which is present in the flow through, was mixed with 4 ml scintillation cocktail (Ecolite, ICN) and measured in a liquid scintillation counter. Appropriate controls were also assayed.
(§2) To rigorously establish that the 28 KDa protein from plant extract was SABP2, the cloned cDNA was expressed in E. coli as His6-tagged fusion protein and the recombinant protein was purified on a Ni column and tested for SA-binding activity (Table IV).

AtSB2L9 = molecular target: T2, AtSB2L9 (Arabidopsis thaliana, UniProt O23171); test: as above; conditions: 1 mM unlabeled competitor; protein produced in E. coli; no competitor = 16486 dpm
T2 construct: made in house; host or cells: E. coli
T2 sequence (O23171 1-256): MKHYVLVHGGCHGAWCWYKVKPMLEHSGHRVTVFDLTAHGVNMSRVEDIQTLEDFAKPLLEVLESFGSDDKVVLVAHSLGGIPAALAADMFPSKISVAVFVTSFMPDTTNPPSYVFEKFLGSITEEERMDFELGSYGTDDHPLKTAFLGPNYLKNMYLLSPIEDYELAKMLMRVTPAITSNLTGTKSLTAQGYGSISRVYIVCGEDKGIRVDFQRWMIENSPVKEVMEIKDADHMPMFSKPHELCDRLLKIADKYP
Protocol: as §1, §2

AtSB2L5 = molecular target: T3, AtSB2L5 (Arabidopsis thaliana, UniProt Q9LFT6); test: as above; conditions: 1 mM unlabeled competitor; protein produced in E. coli; no competitor = 12927 dpm
T3 construct: made in house; host or cells: E. coli
T3 sequence (Q9LFT6 1-258): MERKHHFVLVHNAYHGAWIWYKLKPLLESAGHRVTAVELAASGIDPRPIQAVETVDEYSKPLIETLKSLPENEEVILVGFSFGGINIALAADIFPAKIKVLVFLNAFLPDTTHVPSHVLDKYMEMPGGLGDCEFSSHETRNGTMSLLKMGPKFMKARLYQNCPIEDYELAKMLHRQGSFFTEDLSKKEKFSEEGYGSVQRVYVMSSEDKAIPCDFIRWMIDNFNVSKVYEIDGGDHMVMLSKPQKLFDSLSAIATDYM
Protocol: as §1, §2

SABP2 [1] = molecular target: T4, SABP2 (Nicotiana tabacum, UniProt Q6RYA0); test: [3H] salicylic acid-binding assay with unlabeled competitors, recombinant His6-SABP2 produced in E. coli; design: Full-length tobacco SABP2 was PCR amplified; His6 (N); made in house; host or cells: E. coli BL21 (DE3), vector pET28a; species or system tobacco (Nicotiana tabacum); conditions: for Bound [^3H] SA SABP2: 1 mM unlabeled competitor, protein produced in E. coli, no competitor = 140206 dpm; for inhibition of ^3H-SA binding by unlabeled competitor (in words): large molar excess of unlabeled competitor, recombinant His6-tagged protein; for binding to SABP2 (in words): recombinant, purified SABP2
T4 sequence (Q6RYA0 1-260): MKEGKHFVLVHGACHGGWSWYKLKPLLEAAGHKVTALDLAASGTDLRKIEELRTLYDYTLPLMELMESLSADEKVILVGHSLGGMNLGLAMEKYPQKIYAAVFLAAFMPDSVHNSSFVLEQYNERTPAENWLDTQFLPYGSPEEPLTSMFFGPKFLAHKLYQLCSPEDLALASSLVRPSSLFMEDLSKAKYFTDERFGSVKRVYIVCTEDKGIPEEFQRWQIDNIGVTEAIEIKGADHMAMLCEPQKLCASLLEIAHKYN
Protocol: as §1
Expression of Recombinant SABP2 in E. coli. Full-length tobacco SABP2 was PCR amplified to introduce BamH1 enzyme sites at both ends using the primers F2 ([…]) (SEQ ID NO:51) and F3 ([…]) (SEQ ID NO:52). The amplified product was cloned into the BamH1 site of pET28a (Novagen) and sequenced. Recombinant SABP2 (rSABP2) was synthesized as a soluble protein in E. coli strain BL21 (DE3) and affinity purified by Ni-NTA agarose chromatography (Novagen) as described by the manufacturer. rSABP2 was further purified on a Mono Q column as described earlier.
as §2

SABP2 [2] = molecular target: T4, SABP2; test: SA / analog binding to SABP2 isolated from tobacco plant extracts; design: from tissue; host or cells: tobacco leaves, partially purified extract
Text: (§3) SA is a key component in the signal transduction pathway(s) leading to activation of certain defense responses in plants after pathogen attack. Previous studies have identified several proteins, including catalase and ascorbate peroxidase, through which the SA signal might act. A novel nucleic acid molecule encoding the SA-binding protein 2, SABP2, is described herein. SABP2 was identified through the use of a high specific activity ligand, [^3H]-SA (15–30 Ci/mmole). […] For example, SABP2 is much less abundant in leaf tissue than the catalase, and has an apparent native mass (Mr) of between about 20 and 40 kDa, as compared with the native molecular mass of catalase, which is approximately 240 kDa.
(§4) As one example, assays for SA analogues may be based on the ability of analogues to bind SABP2 or to compete with SA for binding to SABP2. […] Since SABP2 is part of the signal transduction pathway leading to disease resistance, it may be possible to enhance induction of disease resistance using analogues of SA which are not readily metabolized by the plants. […] This glucoside is not active for induction of disease resistance.
(§5) [^3H] […] Bound [^3H]-SA which is present in the flow through, was mixed with 4 ml scintillation cocktail (Ecolite, ICN) and measured in a liquid scintillation counter. […]

SABP2 [3] = molecular target: T4, SABP2; design: from tissue; host or cells: tobacco leaves, partially purified extract; conditions: partially purified plant extracts; more avidly than SA (Du and Klessig, 1997); cited from earlier work
SABP2 expression = test: Induction of SABP2 expression in plants by chemical treatment; assay type: in vivo, tobacco; conditions: without TMV infection
Text: Expression studies have been initiated and already indicate that the tobacco SABP2 and one of its putative Arabidopsis ortholog, AtSB2L9, are induced in plants resisting infection by viral [tobacco mosaic virus(TMV) or turnip crinkle virus (TCV)] or bacterial (P. s.) pathogens. These studies can be extended to other plant-pathogen interactions, e.g. P. s. pv tabaci, and P.s. pv tomato with or without AvrPto in tomato or Pto-transformed Nicotiana benthamiana, for SABP2 and P. s. and Peronospora parasitica for AtSB2L5, AtSB2L9, and other putative orthologs in Arabidopsis. […] Therefore, induction of SABP2 and its Arabidopsis ortholog(s) by ethylene can be tested in a similar fashion.

lipase from Mucor meihei = lipase from Mucor meihei (Rhizomucor miehei, UniProt P19515); test: Lipase activity assay with or without SA, control lipase; assay type: biochemical; conditions: data not shown
Sequence of lipase from Mucor meihei (P19515 95-363): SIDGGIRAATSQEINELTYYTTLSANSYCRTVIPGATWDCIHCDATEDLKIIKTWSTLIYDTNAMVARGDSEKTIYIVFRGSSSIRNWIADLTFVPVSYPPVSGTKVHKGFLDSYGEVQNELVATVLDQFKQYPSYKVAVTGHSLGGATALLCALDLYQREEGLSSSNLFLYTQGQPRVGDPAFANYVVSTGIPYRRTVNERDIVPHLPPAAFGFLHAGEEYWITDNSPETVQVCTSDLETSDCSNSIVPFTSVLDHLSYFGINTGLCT
Protocol: Since SABP2 contains the catalytic triad and the lipase signature sequence, the recombinant protein was tested for lipase activity. […] Addition of SA to the reaction stimulated lipase activity 3–6 fold (FIG. 6B). This stimulation required SA binding to SABP2, since it was abolished in reaction conditions that prevented SA binding. […] The lipase activity assay was performed as described by Yang et al. with modifications to allow SA binding to SABP2. The standard 1 ml assay mixture consisted of 1 mM substrate in 50 mM Bicine pH 8.0, 0.05% Triton-X100. Following a 60 min preincubation on ice in absence or presence of 1 mM SA, the reaction was allowed to proceed at 24° C. for 60 min. A 100 mM stock solution of p-NPM or p-NPP was prepared in acetonitrile. Lipase activity was estimated colorimetrically (Unicom UV1, Spectronic Unicom, UK) by measuring the liberation of para-nitrophenol from p-NPP or p-NPM at 410 nm. Measurements from control reactions without SABP2 were subtracted from each reaction. For non SA-binding conditions, Tris-HCl pH 8.0 (50 mM) was used in placed of Bicine buffer.

SABP2 [4] = molecular target: T4, SABP2; test: Lipase activity assay of purified recombinant SABP2 (pNP palmitate / pNP myristate) with or without SA; assay type: biochemical, tobacco; design: Full-length tobacco SABP2 was PCR amplified; His6 (N); made in house; host or cells: E. coli BL21 (DE3), vector pET28a
SABP2 [5] = test: SA / analog binding to SABP2 isolated from tobacco plant extracts; conditions: fold higher
Text: as §3, §4, §5

Row | Bound [^3H] SA AtSB2L1 (AtSB2L1) | Bound [^3H] SA AtSB2L9 (AtSB2L9) | Bound [^3H] SA AtSB2L5 (AtSB2L5) | Bound [^3H] SA SABP2 (SABP2 [1]) | binding to SABP2 (in words) (SABP2 [1]) | affinity of SABP2 for BTH relative to SA (SABP2 [2]; SABP2 isolated from plant extracts, fold greater) | Structure (SMILES) | Biological Activity of competitor (PR genes) | inhibition of ^3H-SA binding by unlabeled competitor (in words) (SABP2 [1]) | binding of BTH to SABP2 relative to SA (SABP2 [3]) | induction of SABP2 expression by treatment alone (SABP2 expression) | Kd (SABP2 [2]; SABP2 from tobacco, reversible binding, read-out: apparent Kd of SA binding to SABP2) | stimulation of lipase activity by SA (lipase from Mucor meihei) | stimulation of SABP2 lipase activity by SA (SABP2 [4]; 1 mM SA, 50 mM Bicine pH 8.0, substrates pNP palmitate, pNP myristate) | stimulation of SABP2 lipase activity by SA under conditions that prevent SA binding (SABP2 [4]; Tris-HCl pH 8.0 (50 mM) in place of Bicine) | SA binding to SABP2 in Tris buffer (in words) (SABP2 [1]; 50 mM bicine replaced with 50 mM Tris-HCl pH 8.0) | affinity of SABP2 for SA relative to that between SA and tobacco catalase (SABP2 [5])
1 | 38 dpm | 42 dpm | 64 dpm | 260 dpm |  |  | O=C(O)c1cc(Cl)ccc1O [5-CSA, 5-chlorosalicylic acid] | active |  |  |  |  |  |  |  |  | 
2 |  |  |  |  | did not bind | approximately 15 fold | c1ccc2snnc2c1 [BTH, benzothiadiazole] |  |  | about 15 fold | insufficient |  |  |  |  |  | 

More lines, now with the values behind:

Row | Structure (SMILES) | Bound [^3H] SA AtSB2L1 (AtSB2L1) | Bound [^3H] SA AtSB2L9 (AtSB2L9) | Bound [^3H] SA AtSB2L5 (AtSB2L5) | Bound [^3H] SA SABP2 (SABP2 [1]) | binding to SABP2 (in words) (SABP2 [1]) | affinity of SABP2 for BTH relative to SA (SABP2 [2]; SABP2 isolated from plant extracts, fold greater) | Biological Activity of competitor (PR genes) | inhibition of ^3H-SA binding by unlabeled competitor (in words) (SABP2 [1]) | binding of BTH to SABP2 relative to SA (SABP2 [3]) | induction of SABP2 expression by treatment alone (SABP2 expression) | Kd (SABP2 [2]; SABP2 from tobacco, reversible binding, read-out: apparent Kd of SA binding to SABP2) | stimulation of lipase activity by SA (lipase from Mucor meihei) | stimulation of SABP2 lipase activity by SA (SABP2 [4]; 1 mM SA, 50 mM Bicine pH 8.0, substrates pNP palmitate, pNP myristate) | stimulation of SABP2 lipase activity by SA under conditions that prevent SA binding (SABP2 [4]; Tris-HCl pH 8.0 (50 mM) in place of Bicine) | SA binding to SABP2 in Tris buffer (in words) (SABP2 [1]; 50 mM bicine replaced with 50 mM Tris-HCl pH 8.0) | affinity of SABP2 for SA relative to that between SA and tobacco catalase (SABP2 [5])
3 | O=C(O)c1c(O)cccc1O [2,6-DHBA, 2,6-dihydroxybenzoic acid] | 36 dpm | 1072 dpm | 1742 dpm | 924 dpm |  |  | active |  |  |  |  |  |  |  |  | 
4 | O=C(O)c1ccc(O)cc1 [4-HBA, 4-hydroxybenzoic acid] | 65 dpm | 3620 dpm | 4757 dpm | 95634 dpm | only minimal binding |  | inactive | not |  |  |  |  |  |  |  | 
5 | O=C(O)c1ccccc1O [SA, salicylic acid] | 42 dpm | 36 dpm | 121 dpm | 160 dpm |  |  | active | inhibited effectively |  | insufficient | ~90 nM | did not exhibit stimulation | 3–6 fold | abolished | does not bind | 100–150 fold
